Patent US7981882B2, “6-N-linked heterocycle-substituted 2,3,4,5-tetrahydro-1H-benzo[d]azepines as 5-HT2C receptor agonists” (Eli Lilly and Company, priority 2005, dated 2011)

How the values were obtained:
Wistar rats [1] = conditions: cited from earlier work
male NIH Swiss mice [2] = experiment: Marble burying assay; type: in vivo, mouse; conditions: 30 min test, rotorod before
Excerpt: Marble burying in mice has been used to model anxiety disorders including obsessive-compulsive disorders (OCD) due to ethological study of the behavior (e.g. Gyertyan I. “Analysis of the marble burying response: Marbles serve to measure digging rather than evoke burying”, Behavioural Pharmacology 6: 24-31, (1995)) and due to the pharmacological effects of clinical standards (c.f., Njung'E K. Handley S L. “Evaluation of marble-burying behavior as a model of anxiety”, Pharmacology, Biochemistry & Behavior. 38: 63-67, (1991)); Borsini F., Podhoma J., and Marazziti, D. “Do animal models of anxiety predict anxiolytic effects of antidepressants?”, Psychopharmacology 163: 121-141, (2002)).
House experimentally-naïve male, NIH Swiss mice (Harlan Sprague-Dawley, Indianapolis, Ind.) weighing between 28-35 g in groups of 12 for at least three days prior to testing in a vivarium with 12 h light and dark cycles. Conduct experiments during the light cycle in a dimly lit experimental testing room. Dose mice with vehicle or test compound and, after a specified pretreatment interval (generally 30 min.), place each mouse individually on a rotorod (Ugo Basile 7650) operating at a speed of 6 revolutions/min. and observe for falling. […]
Clinically effective standard compounds suppress marble burying at doses that are devoid of motor-impairing effects as measured on the rotorod. […]

Wistar rats [3] = experiment: Schedule-induced polydipsia; type: in vivo, rat
Excerpt: Schedule-Induced Polydipsia
Food-deprived rats exposed to intermittent presentations of food will drink amounts of water that are far in excess of their normal daily intake and in excess of their intake when given all of their food at one time (Falk J L. “Production of polydipsia in normal rats by an intermittent food schedule”, Science 133: 195-196, (1961)). This excessive behavior is persistent and has been used to model OCD.
Maintain Wistar rats on a food restricted diet (to maintain 85% free feeding weight), but with free access to water. Train the rats in a behavioral testing chamber to press a lever to receive a food pellet under a fixed interval schedule, such that the rats are rewarded with a 45 mg food pellet the first time they press a lever after a 120 second interval has elapsed. The fixed interval is then reset to 120 seconds and the process repeated. Thus, during a 90 min. test session, the rats can earn a maximum of 45 pellets. The behavioral chamber is also equipped with a water bottle that is weighed before and after the session to determine the amount of water consumed.
Administer test compounds on Tuesdays and Fridays. […] Compare the rates of lever pressing and water consumption for each animal's performance during sessions after test compound treatment with that animal's performance during control sessions, expressed as a percent of the control rate. […]

male NIH Swiss mice [4] = experiment: Nestlet shredding; type: in vivo, mouse; conditions: 30 min test
Excerpt: Mice naturally will construct nests of material available in their living environment. Since this behavior is obsessive in nature, it has been used to model OCD (Xia Li, Denise Morrow and Jeffrey M. Witkin, “Decreases in nestlet shredding of mice by serotonin uptake inhibitors: comparison with marble burying”, Psychopharmacology, submitted Jul. 14, 2003). House experimentally-naïve male, NIH Swiss mice (Harlan Sprague-Dawley, Indianapolis, Ind.) weighing between 28-35 g in groups of 12 for at least three days prior to testing in a vivarium with a 12 h light/dark cycle. Conduct experiments during the light cycle in an experimental room with normal overhead fluorescent lighting. Dose mice with vehicle or test compound and after a specified pretreatment interval (generally 30 min.), place the mice individually in a 17×28×12 cm high plastic tub with about 5 mm sawdust shavings on the floor along with a pre-weighed multi-ply gauze pad (51 mm square). After 30 min., weigh the remainder of the gauze pad not removed by the mouse. Determine the weight of the gauze used for nestlet construction by subtraction. Compare the results for test compound treated mice to the results for vehicle control treated mice with Dunnett's test.
Clinically effective OCD treatment standard compounds suppress nestlet shredding at doses that are devoid of motor-impairing effects as measured by the rotorod test. […]

male NIH Swiss mice [5] = conditions: cited from earlier work

Compound: CN(C)CCCN1c2ccccc2CCc2ccc(Cl)cc21 [chlomipramine]
- Schedule-induced polydipsia (clinically effective OCD treatment standards) (Wistar rats [1]): suppress schedule-induced polydipsia without producing notable changes in motor patterns, food intake, or behavior the following day

Compound: CN(C)CCCN1c2ccccc2Sc2ccc(Cl)cc21 [chlorpromazine]
- Marble burying behavior (with rotorod performance) (male NIH Swiss mice [2]): decrease marble burying only at doses that also disrupt rotorod performance

Compound: C[C@H](N)Cc1ccccc1 [d-amphetamine]
- Suppression of excessive drinking with co-administration of 5-HT2C antagonist (Wistar rats [3]): not prevented by the 5HT2C receptor antagonist
- Schedule-induced polydipsia (excessive drinking) (Wistar rats [3]; 90 min session): decreases excessive drinking only at behaviorally stimulating doses
- Nestlet shredding (with motor effects) (male NIH Swiss mice [4]): decreases nestlet shredding only at doses that produce motoric side effects

Compound: CNCCC(Oc1ccc(C(F)(F)F)cc1)c1ccccc1 (stereo not shown) [fluoxetine]
- Marble burying (clinical standards, literature) (male NIH Swiss mice [5]): decrease burying
- Schedule-induced polydipsia (clinically effective OCD treatment standards) (Wistar rats [1]): suppress schedule-induced polydipsia without producing notable changes in motor patterns, food intake, or behavior the following day
